The target of data set [1] is T1, IKKβ (Homo sapiens, UniProt O14920).
T1 construct: purchased BPS Bioscience
T1 sequence (O14920 1-756): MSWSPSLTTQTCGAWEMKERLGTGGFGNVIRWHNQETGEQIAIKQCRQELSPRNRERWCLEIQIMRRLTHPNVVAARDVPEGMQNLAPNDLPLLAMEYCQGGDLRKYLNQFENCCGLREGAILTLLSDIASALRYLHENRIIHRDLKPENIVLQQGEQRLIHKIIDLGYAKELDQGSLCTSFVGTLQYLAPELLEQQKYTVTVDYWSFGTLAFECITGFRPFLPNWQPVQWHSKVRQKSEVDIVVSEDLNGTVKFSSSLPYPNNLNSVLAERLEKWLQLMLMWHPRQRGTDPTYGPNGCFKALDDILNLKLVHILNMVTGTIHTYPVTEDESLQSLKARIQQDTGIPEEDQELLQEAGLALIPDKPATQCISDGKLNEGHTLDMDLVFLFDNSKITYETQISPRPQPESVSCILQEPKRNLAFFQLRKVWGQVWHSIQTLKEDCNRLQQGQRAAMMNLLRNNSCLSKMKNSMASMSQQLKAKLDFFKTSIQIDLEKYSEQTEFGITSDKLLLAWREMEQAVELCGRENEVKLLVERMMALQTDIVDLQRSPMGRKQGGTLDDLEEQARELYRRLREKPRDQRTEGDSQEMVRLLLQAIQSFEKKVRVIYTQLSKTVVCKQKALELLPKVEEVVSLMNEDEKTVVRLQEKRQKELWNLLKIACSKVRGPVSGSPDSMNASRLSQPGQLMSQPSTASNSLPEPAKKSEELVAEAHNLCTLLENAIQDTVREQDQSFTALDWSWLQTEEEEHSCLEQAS
Put plainly: IKKβ inhibition assay (IKKβ Kinase Assay Kit). Format: biochemical. How it is done:
IκB kinase beta (IKKβ) inhibition was determined using the IKKβ Kinase Assay Kit (BPS Bioscience, San Diego, California, USA). […] Kinase-Glo® MAX (Promega, #V6071, Madison, Wisconsin, USA) was used as the detection reagent, with an incubation time of 15 min. Blank values were subtracted from all measurements. Luminescence was measured with an integration time of 1 s using a Spark Microplate Reader (Tecan, Switzerland).

Data set [2] relates to NF-κB in THP1-Blue NF-κB cells. Put plainly: NF-κB activity assay (SEAP reporter, LPS-induced). Format: cell-based. Conditions: LPS 10 ng/mL. On the procedure: THP1-Blue NF-κB cells, NF-κB secreted embryonic alkaline phosphatase (SEAP) reporter monocytes (InvivoGen, USA), were assayed after 20–24 h of incubation following the manufacturer’s protocol. Briefly, cells were seeded at 1 × 10^6 cells/mL in RPMI medium in 96-well plates (180 μL) and treated with complex 3 or 4, Lipopolysaccharide (LPS) (10 ng/mL; […] The next day, NF-κB activation was assessed via the secretion of SEAP. Supernatants (20 μL) were transferred to 96-well plates, and 180 μL of Quanti-Blue was added. Plates were incubated for 2 h at 37°C, and absorbance was measured at 600 nm using an […] 200 PRO microplate reader (TECAN, Switzerland).

Data set [3] is described as follows: UV–Vis spectroscopy in PBS (solubility). It is filed as physicochemical. To be noted: PBS (PBS:DMSO 99:1), UV–Vis linearity of absorbance. On the procedure:
All chemicals were sourced from commercial suppliers and utilized directly without any additional purification steps. Nuclear Magnetic Resonance (NMR) spectra were acquired on a 400-MHz spectrometer (JEOL, Tokyo, Japan) at 25°C. The chemical shifts (δ) are given in parts per million (ppm), with coupling constants (J) measured in hertz (Hz). The ^1H and ^13C NMR shifts are referenced to TMS, and solvent signals from Dimethyl Sulfoxide (DMSO)-d6 (2.50 ppm for ^1H and 39.52 ppm for ^13C) were used as references. Data analysis was performed using MestReNova software (version 14.2.1, Mestrelab Research S.L., Santiago de Compostela, SPAIN). Full assignment was performed using a combination of ^1H, ^13C, correlation spectroscopy (COSY), heteronuclear single quantum coherence (HSQC), and heteronuclear multiple bond correlation (HMBC) experiments. Mass spectrometry was conducted in positive ion mode using electrospray ionization (ESI^+) with a high-resolution hybrid Ion Trap-Orbitrap mass spectrometer (LTQ Orbitrap Velos, Thermo Scientific, Waltham, Massachusetts, USA), Supplementary Figures S21, S22. Detailed NMR spectra for all synthesized products are available in Supplementary Figures S12-S20. […] Characteristic absorption maxima were identified, and their dependence on concentration was evaluated.

In data set [4] the test system is THP1-Blue NF-κB cells. Description: MTT viability assay of THP1-Blue NF-κB cells. It is filed as cell-based. Conditions: concentrations of the NF-κB activity assay, overnight. On the procedure: A total of 20 μL of sterile filtered MTT (Sigma-Aldrich, Merck, Germany) solution (5 mg/mL in PBS) was added to the remaining overnight culture of THP1-Blue NF-κB cells from the above NF-κB activity assay in 96-well plates, which were incubated at 37°C (see above). After 2 h of incubation at 37°C, the supernatant was removed, and the purple formazan product generated in the cells was dissolved by the addition of 100 μL of DMSO to each well. The plates were then gently shaken for 30 s at room temperature to dissolve the precipitates. The absorbance was measured at 570 nm using an […] 200 PRO microplate reader (TECAN, Switzerland) ([43]).

The target of data set [5] is T2, IL-8 (Homo sapiens, UniProt P10145).
T2 construct: purchased PeproTech, Thermo Fisher Scientific
T2 sequence (P10145 21-99): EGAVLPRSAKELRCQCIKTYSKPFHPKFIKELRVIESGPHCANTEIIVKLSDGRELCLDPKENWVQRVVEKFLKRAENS
Put plainly: Sandwich ELISA assay IL-8. Format: binding. Conditions: for Decrease of IL-8 concentration: 500 pg/mL IL-8. On the procedure:
Human ELISA kits for IL-6, IL-6R, and IL-8 (Sigma-Aldrich, Merck, Germany) were used to quantify cytokine levels after treatment with complex 3 or 4. Briefly, 96-well plates precoated with specific antibodies were used to capture IL-6, IL-6R, and IL-8 from samples. […] Each sample was supplemented with 500 pg/mL of IL-6/IL-6R/IL-8. Positive control wells contained only the IL-6/IL-6R/IL-8 standard (PeproTech, Thermo Fisher Scientific, Waltham, Massachusetts, USA). […] After incubation, wells were washed, and biotinylated antihuman antibodies were added, followed by washing and addition of HRP-conjugated streptavidin. Finally, the TMB substrate was added to develop a color proportional to the cytokine concentration, and the reaction was stopped with the stop solution. Absorbance was measured at 450 nm using an […] 200 PRO microplate reader (TECAN, Switzerland).
On the technique in general: An ELISA detects its analyte on a solid surface through an enzyme-linked reagent.

Consider two compounds from publication PMC12754617, “Ruthenium-enhanced curcumin derivatives target tumor growth and cancer-related inflammation in head and neck cancer models” (Frontiers in Oncology, 2025).

As for `Cc1ccc(C(C)C)cc1.Cc1ccc(C(C)C)cc1.O=C1C(=Cc2ccnc3ccccc23)COCC1=Cc1ccnc2ccccc12.[Cl][Ru][Cl].[Cl][Ru][Cl]` [Complex 3], the “Reduction of IKKβ activity” value in data set [1] (8 μM) is reported as “about 40%”. Also, the “Reduction of LPS-induced NF-κB activation” value in data set [2] (8 μM) is “approximately 80%”. Also, the “Solubility in the buffered environment” value in data set [3] was “sufficient solubility”. The “Cytotoxicity in THP1-Blue NF-κB cells (MTT)” value in data set [4] was “Neither complex 3, complex 4, nor curcumin exhibited significant cytotoxicity”. Moreover, the “IL-8 reduction relative to curcumin” value in data set [5] (1 µM versus curcumin at 5 µM) is reported as “roughly 1.5 fold”. In addition, the “Decrease of IL-8 concentration” value in data set [5] (8 µM) was “approximately 40%”.
For `Cc1ccc(C(C)C)cc1.Cc1ccc(C(C)C)cc1.O=C1C(=Cc2cccnc2)CCC1=Cc1cccnc1.[Cl][Ru][Cl].[Cl][Ru][Cl]` [Complex 4], in data set [1] (1 μM), the “Inhibition of IKKβ activity” value was “approximately 30%”. Besides, the “Reduction of LPS-induced NF-κB activation” value in data set [2] (15 μM) is given as “about 70%”. Also, the “Solubility in the buffered environment” value in data set [3] is “sufficient solubility”. Besides, the “Cytotoxicity in THP1-Blue NF-κB cells (MTT)” value in data set [4] was “Neither complex 3, complex 4, nor curcumin exhibited significant cytotoxicity”. For the same compound, the “Decrease of IL-8 concentration” value in data set [5] (15 µM) is recorded as “approximately 30%”.
